Tests used:
[1] = tested on: ticks, fleas, formicids and termites; assay: Persistence of biocidal activity in vials treated with 2% solutions (Example 5); assay type: in vivo; settings: at 11 weeks
Experimental: Samples of the compounds listed below were obtained as described in Example 1, and screened for biocidal activities against nymphal Ixodes scapularis. In this example, 2% acetone solutions (wt/vol) of the compounds were applied to inner surfaces of 2-dram friction cap vials. Vials and caps were treated then allowed to dry for a minimum of 4 hours before placing 10 nymphs in each container. These same vials were used to challenge additional nymphs and adult I. scapularis ticks and adult Xenopsylla cheopis fleas through five weeks to observe any possible residual activity.
Persistence of biocidal activity was determined for nootkatone and valencene-11,12-epoxide by using the vials as treated with the 2% solutions of Example 2. This bioassay employed groups of ticks, fleas, formicids and termites using a method similar to that described in Example 2. […] At 11 weeks, the biocidal activity began to dissipate below the 100% mortality level.

I. scapularis nymphs = assay: Tick bioassay, treated 2-dram vials, probit analysis; assay type: in vivo, Ixodes scapularis
Excerpt: A control treated with acetone only was run with each series.
For each time point, if ticks and fleas were incapable of movement, maintaining normal posture, leg coordination, ability to right themselves, or any signs of life, they were considered moribund or dead.

Ixodes scapularis nymphs = assay: Residual activity, aged treated vials, ticks; assay type: in vivo
Experimental: (§1) Briefly, groups of 10 nymphal I. scapularis and X. cheopis fleas were used in all tests (more than a total of 5,240 nymphs and 4,860 fleas were exposed to the compounds). The inner surface of 2-dram friction cap vials were treated with the compound/acetone solution, or acetone only as a control, and left to air-dry overnight (see also, Panella et al., J. Med. Entomol., 42(3):352-358, 2005. Three to 4 holes were made in the plastic cap to allow for air exchange. Nymphal ticks and adult fleas were then placed directly into the vials using forceps. Vials containing ticks or fleas were placed in desiccators for 24 h at 21° C. and 90% RH. Morbidity and mortality was recorded at 1, 2, 4, 8, and 24 h after initial exposure.

[2] = tested on: Xenopsylla cheopis adults; assay: Residual activity, aged treated vials, fleas; assay type: in vivo
Experimental: as §1

[3] = Ixodes scapularis nymphal ticks, alone, or 1:1 with carvacrol (in parenthesis)

C=C(C)[C@@H]1CCC2=CC(=O)C[C@@H](C)[C@]2(C)C1 [Compound 7, Nootkatone]
mortality level [1]: < 100% | LC90 (I. scapularis nymphs; 24 h exposure, NE = not effective at concentrations tested): 0.0055 percent concentration, wt:vol | Slope (I. scapularis nymphs; 24 h exposure, probit): 4.708 | LC50 (1 h) (I. scapularis nymphs; [3]): 0.126 % (wt:vol) | LC50 (24 h) (I. scapularis nymphs; [3]): 0.0029 % (wt:vol) | LC90 (1 hr) (I. scapularis nymphs; [3]): 0.725 % (wt:vol) | LC90 (24 h) (I. scapularis nymphs; [3]): 0.0055 % (wt:vol) | LC50 (24 h) (I. scapularis nymphs; Ixodes scapularis nymphal ticks, alone, or 1:1 with carvacrol (in parenthesis), listed as compound 7): 0.0029 % (wt:vol) | Slope, residual activity (Ixodes scapularis nymphs; 1 week after treatment): 1.682 | Slope, residual activity (Ixodes scapularis nymphs; 2 weeks after treatment): 1.586 | Slope, residual activity (Ixodes scapularis nymphs; 4 weeks after treatment): 1.609 | LC50, residual activity (Ixodes scapularis nymphs; 4 weeks after treatment, NE = not effective): 0.026 percent concentration, wt:vol | Slope, residual activity ([2]; 1 week after treatment): 2.546 | LC90, residual activity ([2]; 1 week after treatment, NE = not effective): 0.05 percent concentration, wt:vol | Slope, residual activity ([2]; 2 weeks after treatment): 2.033 | LC50, residual activity ([2]; 4 weeks after treatment): 0.031 percent concentration, wt:vol

Source: US7230033B2, “Pest control compositions and methods for their use” (United States of America as represented by the Secretary of …, priority 2000, dated 2007)
